Laboratory results taken from the supplement of paper PMC10307832.

How the values were obtained:
Test in all cases: relative viability (nuclei count vs DMSO), 5 days (fraction); higher = more cells survive
ChaGo-K-1 = tested on: ChaGo-K-1
How it was run: (§1)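 After 5 days of treatment, lung cancer cells in 1536-well plates were fixed and stained in a single step (final 0.05% Triton X-100, 1% formaldehyde, 1 ug/ml Hoechst) and their nuclei counted on 4× images. Treatment had been applied by pin tool the day after seeding as one drug alone or as a fixed anchor-drug dose with five library-drug doses (not always all listed) in √10 steps. Relative viability is the nuclei count of treated wells divided by that of vehicle wells, and values are medians of duplicate plates.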

EMC-BAC-2 = tested on: EMC-BAC-2
How it was run: as §1

EPLC-272H = tested on: EPLC-272H
How it was run: as §1

HCC-827 = tested on: HCC-827
How it was run: as §1

LCLC-103H = tested on: LCLC-103H
How it was run: as §1

LK-2 = tested on: LK-2
How it was run: as §1

LOU-NH91 = tested on: LOU-NH91
How it was run: as §1

LU99A = tested on: LU99A
How it was run: as §1

LXF-289 = tested on: LXF-289
How it was run: as §1

NCI-H1563 = tested on: NCI-H1563
How it was run: as §1

NCI-H1666 = tested on: NCI-H1666
How it was run: as §1

`NC(=O)Nc1cc(-c2cccc(F)c2)sc1C(=O)N[C@H]1CCCNC1` [AZD7762] + CCNC(=O)c1noc(-c2cc(C(C)C)c(O)cc2O)c1-c1ccc(CN2CCOCC2)cc1 [Luminespib] (partner 0.01 µM) gave a relative viability (ChaGo-K-1; first compound 0.01 µM) of 0.601, a relative viability (ChaGo-K-1; first compound 0.03162 µM) of 0.578 and a relative viability (ChaGo-K-1; first compound 0.1 µM) of 0.692. For the same molecule, the relative viability (ChaGo-K-1; first compound 0.3162 µM) was 0.513, the relative viability (ChaGo-K-1; first compound 1 µM) was 0.354 and the relative viability (EMC-BAC-2; first compound 0.01 µM) was 1.23. It also gave a relative viability (EMC-BAC-2; first compound 0.03162 µM) of 1.16, a relative viability (EMC-BAC-2; first compound 0.1 µM) of 1.19 and a relative viability (EMC-BAC-2; first compound 0.3162 µM) of 1.23. The relative viability (EMC-BAC-2; first compound 1 µM) was 1.04, the relative viability (EPLC-272H; first compound 0.01 µM) was 0.55 and the relative viability (EPLC-272H; first compound 0.03162 µM) was 0.303. For the same molecule, the relative viability (EPLC-272H; first compound 0.1 µM) was 0.319, the relative viability (EPLC-272H; first compound 0.3162 µM) was 0.459 and the relative viability (EPLC-272H; first compound 1 µM) was 0.143. It also gave a relative viability (HCC-827; first compound 0.01 µM) of 0.598, a relative viability (HCC-827; first compound 0.03162 µM) of 0.677 and a relative viability (HCC-827; first compound 0.1 µM) of 0.604. For the same molecule, the relative viability (HCC-827; first compound 0.3162 µM) was 0.459, the relative viability (HCC-827; first compound 1 µM) was 0.213 and the relative viability (LCLC-103H; first compound 0.01 µM) was 1.06. For the same molecule, the relative viability (LCLC-103H; first compound 0.03162 µM) was 0.932, the relative viability (LCLC-103H; first compound 0.1 µM) was 1.01 and the relative viability (LCLC-103H; first compound 0.3162 µM) was 0.943. For the same molecule, the relative viability (LCLC-103H; first compound 1 µM) was 0.953, the relative viability (LK-2; first compound 0.01 µM) was 0.198 and the relative viability (LK-2; first compound 0.03162 µM) was 0.155. For the same molecule, the relative viability (LK-2; first compound 0.1 µM) was 0.215, the relative viability (LK-2; first compound 0.3162 µM) was 0.164 and the relative viability (LK-2; first compound 1 µM) was 0.167. For the same molecule, the relative viability (LOU-NH91; first compound 0.01 µM) was 0.302, the relative viability (LOU-NH91; first compound 0.03162 µM) was 0.317 and the relative viability (LOU-NH91; first compound 0.1 µM) was 0.403. The relative viability (LOU-NH91; first compound 0.3162 µM) was 0.309, the relative viability (LOU-NH91; first compound 1 µM) was 0.379 and the relative viability (LU99A; first compound 0.01 µM) was 0.255. For the same molecule, the relative viability (LU99A; first compound 0.03162 µM) was 0.265, the relative viability (LU99A; first compound 0.1 µM) was 0.357 and the relative viability (LU99A; first compound 0.3162 µM) was 0.201. For the same molecule, the relative viability (LU99A; first compound 1 µM) was 0.207, the relative viability (LXF-289; first compound 0.01 µM) was 0.673 and the relative viability (LXF-289; first compound 0.03162 µM) was 0.601. For the same molecule, the relative viability (LXF-289; first compound 0.1 µM) was 0.753, the relative viability (LXF-289; first compound 0.3162 µM) was 0.724 and the relative viability (LXF-289; first compound 1 µM) was 0.456. It also gave a relative viability (NCI-H1563; first compound 0.01 µM) of 0.524, a relative viability (NCI-H1563; first compound 0.03162 µM) of 0.507 and a relative viability (NCI-H1563; first compound 0.1 µM) of 0.523. It also gave a relative viability (NCI-H1563; first compound 0.3162 µM) of 0.505, a relative viability (NCI-H1563; first compound 1 µM) of 0.475 and a relative viability (NCI-H1666; first compound 0.01 µM) of 1.11. The relative viability (NCI-H1666; first compound 0.03162 µM) was 1.07, the relative viability (NCI-H1666; first compound 0.1 µM) was 1.18 and the relative viability (NCI-H1666; first compound 0.3162 µM) was 1.03. For the same molecule, the relative viability (NCI-H1666; first compound 1 µM) was 0.97.
